From ChEMBL document CHEMBL3885881, “DrugMatrix”

Organism: Rattus norvegicus
Assay: DrugMatrix - Regimen: Daily Repeat
Assay type: toxicity, organism-based, Sprague-Dawley
Design: regimen Daily Repeat, gender Male, age 6-8 weeks
Details: in vivo, po, 70 mg/kg, route oral GAVAGE, dose level Low, vehicle 100 % WATER; for ABSOLUTE BASOPHIL / ABSOLUTE EOSINOPHIL / ABSOLUTE LYMPHOCYTE / ABSOLUTE MONOCYTE / ABSOLUTE SEGMENTED NEUTROPHIL / BASOPHIL / EOSINOPHIL / ERYTHROCYTE COUNT / HEMATOCRIT / HEMOGLOBIN / LEUKOCYTE COUNT / LYMPHOCYTE / MEAN CORPUSCULAR HEMOGLOBIN / MEAN CORPUSCULAR HEMOGLOBIN CONCENTRATION / MEAN CORPUSCULAR VOLUME / MONOCYTE / NEUTROPHIL / NUCLEATED RED BLOOD CELLS: tissue Blood; for ALANINE AMINOTRANSFERASE / ALBUMIN / ALKALINE PHOSPHATASE / ASPARTATE AMINOTRANSFERASE / BLOOD UREA NITROGEN / CARBON DIOXIDE / CHLORIDE / CHOLESTEROL / CREATINE PHOSPHOKINASE / CREATININE / LACTATE DEHYDROGENASE / LIPASE / PHOSPHORUS / POTASSIUM / SODIUM / TOTAL BILIRUBIN / TOTAL PROTEIN / URIC ACID: tissue Plasma

CN(C)CCCN1c2ccccc2CCc2ccc(Cl)cc21 [CLOMIPRAMINE]
ABSOLUTE BASOPHIL (72 h, time 3 day): 0 CELLS/uL
ABSOLUTE EOSINOPHIL (72 h, time 3 day): 0 CELLS/uL
ABSOLUTE LYMPHOCYTE (72 h, time 3 day): 11511.33 CELLS/uL
ABSOLUTE MONOCYTE (72 h, time 3 day): 50 CELLS/uL
ABSOLUTE SEGMENTED NEUTROPHIL (72 h, time 3 day): 672 CELLS/uL
BASOPHIL (72 h, time 3 day): 0%
EOSINOPHIL (72 h, time 3 day): 0%
ERYTHROCYTE COUNT (72 h, time 3 day): 5.82 x10E6/uL
HEMATOCRIT (72 h, time 3 day): 36.17%
HEMOGLOBIN (72 h, time 3 day): 14.27 G/DL
LEUKOCYTE COUNT (72 h, time 3 day): 12.23 x10E3/uL
LYMPHOCYTE (72 h, time 3 day): 94%
MEAN CORPUSCULAR HEMOGLOBIN (72 h, time 3 day): 24.53 pg
MEAN CORPUSCULAR HEMOGLOBIN CONCENTRATION (72 h, time 3 day): 39.47 G/DL
MEAN CORPUSCULAR VOLUME (72 h, time 3 day): 62.17 fL
MONOCYTE (72 h, time 3 day): 0.33%
NEUTROPHIL (72 h, time 3 day): 5.67%
NUCLEATED RED BLOOD CELLS (72 h, time 3 day): 0.33 /100WBC
ALANINE AMINOTRANSFERASE (72 h, time 3 day): 52.33 u/L
ALBUMIN (72 h, time 3 day): 4.17 G/DL
ALKALINE PHOSPHATASE (72 h, time 3 day): 458.67 u/L
ASPARTATE AMINOTRANSFERASE (72 h, time 3 day): 99 u/L
BLOOD UREA NITROGEN (72 h, time 3 day): 15.67 mg/dL
CARBON DIOXIDE (72 h, time 3 day): 24.67 mmol/L
CHLORIDE (72 h, time 3 day): 101 MEQ/L
CHOLESTEROL (72 h, time 3 day): 73 mg/dL
CREATINE PHOSPHOKINASE (72 h, time 3 day): 853.67 u/L
CREATININE (72 h, time 3 day): 0.22 mg/dL
LACTATE DEHYDROGENASE (72 h, time 3 day): 317.67 u/L
LIPASE (72 h, time 3 day): 9 u/L
PHOSPHORUS (72 h, time 3 day): 13.47 mg/dL
POTASSIUM (72 h, time 3 day): 6.22 MEQ/L
SODIUM (72 h, time 3 day): 146.57 MEQ/L
TOTAL BILIRUBIN (72 h, time 3 day): 0.27 mg/dL
TOTAL PROTEIN (72 h, time 3 day): 6.07 G/DL
URIC ACID (72 h, time 3 day): 1.93 mg/dL
ABSOLUTE BASOPHIL (120 h, time 5 day): 0 CELLS/uL
ABSOLUTE EOSINOPHIL (120 h, time 5 day): 39.67 CELLS/uL
ABSOLUTE LYMPHOCYTE (120 h, time 5 day): 12212 CELLS/uL
ABSOLUTE MONOCYTE (120 h, time 5 day): 206.67 CELLS/uL
ABSOLUTE SEGMENTED NEUTROPHIL (120 h, time 5 day): 1075 CELLS/uL
BASOPHIL (120 h, time 5 day): 0%
EOSINOPHIL (120 h, time 5 day): 0.33%
ERYTHROCYTE COUNT (120 h, time 5 day): 6.52 x10E6/uL
HEMATOCRIT (120 h, time 5 day): 41.7%
HEMOGLOBIN (120 h, time 5 day): 15.97 G/DL
LEUKOCYTE COUNT (120 h, time 5 day): 13.53 x10E3/uL
LYMPHOCYTE (120 h, time 5 day): 90.33%
MEAN CORPUSCULAR HEMOGLOBIN (120 h, time 5 day): 24.53 pg
MEAN CORPUSCULAR HEMOGLOBIN CONCENTRATION (120 h, time 5 day): 38.27 G/DL
MEAN CORPUSCULAR VOLUME (120 h, time 5 day): 64.07 fL
MONOCYTE (120 h, time 5 day): 1.33%
NEUTROPHIL (120 h, time 5 day): 8%
NUCLEATED RED BLOOD CELLS (120 h, time 5 day): 1 /100WBC
ALANINE AMINOTRANSFERASE (120 h, time 5 day): 54 u/L
ALBUMIN (120 h, time 5 day): 4.67 G/DL
ALKALINE PHOSPHATASE (120 h, time 5 day): 417.67 u/L
ASPARTATE AMINOTRANSFERASE (120 h, time 5 day): 75.33 u/L
BLOOD UREA NITROGEN (120 h, time 5 day): 13.33 mg/dL
CARBON DIOXIDE (120 h, time 5 day): 27.67 mmol/L
CHLORIDE (120 h, time 5 day): 100.33 MEQ/L
CHOLESTEROL (120 h, time 5 day): 74 mg/dL
CREATINE PHOSPHOKINASE (120 h, time 5 day): 213 u/L
CREATININE (120 h, time 5 day): 0.2 mg/dL
LACTATE DEHYDROGENASE (120 h, time 5 day): 196.67 u/L
LIPASE (120 h, time 5 day): 8.67 u/L
PHOSPHORUS (120 h, time 5 day): 12.07 mg/dL
POTASSIUM (120 h, time 5 day): 6.7 MEQ/L
SODIUM (120 h, time 5 day): 146.33 MEQ/L
TOTAL BILIRUBIN (120 h, time 5 day): 0.2 mg/dL
TOTAL PROTEIN (120 h, time 5 day): 6.57 G/DL
URIC ACID (120 h, time 5 day): 1.57 mg/dL
